Reference: US20230064978A1, “CYCLIC PEPTIDE RECEPTOR LANTHIONINE SYNTHETASE C-LIKE PROTEIN (LANCL) AND USES THEREOF” (LATERAL IP PTY LTD, priority 2019, published 2023)
“Also recorded” adds a separate entry of the source. Bridges are numbered along the chain shown (N, C = ends). Where no end group is shown, it is not given here.

What was measured:
[1] = tested on: tissue homogenates of nerve from neuropathic animals; experiment: PAL cross-linking to nerve tissue homogenates and gel separation; assay type: binding
Excerpt: Using a ligand driven approach, the present inventors utilized the photo-activatable cross-linking PAL from Evotec A.G. (Photo-Activated Labelling) technology that derivatizes the active cyclic peptides to allow UV-induced cross-linking to binding targets (described herein as peptide/SEQ ID NO:X-PAL). This allows subsequent detection in cells, gels of tissue isolates or in pull-down of the peptide/target complex for sequencing by mass spectroscopy (PALMS).
LAT9991-PAL was cross-linked to tissue homogenates of nerve from neuropathic animals.

[2] = tested on: spinal cord slice model; experiment: Spinal cord slice model; conditions: data not shown
[3] = tested on: NCI-H358 cells; experiment: Confocal imaging of LAT9991F-PAL binding and LANCL1 co-localization, with siRNA knockdown and competitors, in NCI-H358 cells; assay type: cell-based; conditions: SiLANCL1 NCI-H358 cells; competitor 25 μM
Experimental: (§1) A photoactivatable analog of LAT8881 (LAT9991F (SEQ ID NO:13)-PAL), was used to conduct the experiments. A549 or NCI-H358 cells were treated with LAT9991F-PAL at 2.5 μM during 30 minutes. Fluorescent signal was recorded after that LAT9991F-PAL was immobilized on its target(s) site by UV-crosslinking and the LAT9991F-PAL-target complexes were labeled with the green-fluorescent Alexa Fluor 488 alkyne dye by click-chemistry. Control cells were treated with the vehicle, dimethyl sulfoxide (DMSO), and with LAT9991F-PAL in combination with a large excess of the parent drug LAT8881 or other competitors, GSH, NSC61610 or ABA to evaluate, respectively, the non-specific fluorescent background and the specificity of the staining. For colocalization experiments, subsequently, immunofluorescence staining with an anti-LANCL1 or LANCL2 antibodies and an Alexa 568 (red) conjugated secondary antibody was performed. Images stacks of cells labeled with probes were collected and evaluated for the degree of colocalization of LAT9991F-PAL-target complexes and LANCL1 or LANCL2 using either the Measure Colocalization plugin in Metamorph or the JACoP plugin in ImageJ).
(§2) A549 or NCI-H358 cells (ATCC CCL-185 and ATCC CRL-5807, respectively) were cultured in appropriate medium containing 10% heat-inactivated FBS (Dutscher, #SV30160-036), 1% penicillin/streptomycin (Gibco, #15140-122) and maintained in a humidified 37° C. incubator with 5% CO2.
(§3) LAT9991F-PAL was dissolved in DMSO to make a 10 mM stock solution. Intermediate solutions at 25 μM and 2.5 μM were made in the culture medium from the 10 mM stock solutions of LAT8881 and LAT9991F-PAL, respectively. A two-fold dilution into PBS of each intermediate solution was used for cell treatment. A stock solution at 10 mM was prepared for the other competitors as GSH, NSC61610 and ABA. A final concentration at 25 μM was used for the assay.
ibidiTreat Polymer Coverslips (Ibidi, #80826) were coated with serum during 1 hour at 37° C., followed by Laminin (100 μg\ml) (incubation for 1 hour at 37° C.) for NCI-H358 cells.
(§4) A549 or NCI-H358 cells were seeded onto ibidiTreat Polymer Coverslips (Ibidi, #80826) at 2.5×10^5 cells/cm^2 in 200 μl of complete medium. After 24 hours, the medium was removed and cells were washed with PBS (Gibco, #10010049) and then pre-treated with the Taxol at 1 μM for 3 hours or with H2O2 25 μM for 2 hours. Cells were washed twice with PBS. Induced stress cells or control cells were then exposed to LAT9991F-PAL (2.5 μM) in PBS for 30 minutes, in the presence or absence of LAT8881 (25 μM), or the other compounds used as a competitor, and pre-incubated 10 minutes. After treatment, cells were washed with cold PBS and UV-irradiated (365 nm) in PBS for 20 min. After fixation with 4% paraformaldehyde and permeabilization (0.5% Triton/PBS) (Image-iT™ Fixation/Permeabilization Kit, ThermoFisher, #R37602), the bioorthogonal reaction with Alexa Fluor 488 Alkyne (1 μM) (ThermoFisher, #A10267) was performed at 25° C. using the Click-iT™ Cell Reaction Buffer Kit (ThermoFisher, #C10269) according to the manufacturer protocol. After click reaction, cells were washed twice with PBS, blocked with 3% BSA in PBS for 1 hour and stained with Hoechst 33342 dye (ThermoFisher, #H1399).
(§5) For colocalization experiments, cells were further incubated overnight at 4° C. with a mouse anti-LanCL1 antibody (Invitrogen, PAS-57-107) (dilution 1:1000) or LanCL2 (Atlas Antibodies HPA019711) (dilution 1:1000) in 3% BSA in PBS, washed twice with PBS, and then incubated respectively with a goat anti-mouse […] (Molecular Probes, #A21467) (dilution 1:800) for 1 h in 3% BSA in PBS. After three further washing steps with PBS, cells were embedded in Ibidi Mounting Medium (ibidi, #50001). The specimens were kept at 4° C. in the dark until analysis.
Images were acquired on an Axiovert200M (Zeiss) microscope using a CSU-W1 Yokogawa confocal unit.

[4] = tested on: A549 cells; experiment: Confocal imaging of LAT9991F-PAL binding and LANCL1 co-localization, with siRNA knockdown and competitors, in A549 cells; assay type: cell-based; conditions: SiLANCL1 A549 cells; competitor 25 μM
Experimental: as §1, §2, §3, §4, §5
Images were acquired on an Axiovert200M (Zeiss) microscope using a CSU-W1 Yokogawa confocal unit. This microscope is equipped with a plan Apochromat X40 dry objective numerical aperture (NA) 0.95 and a Neofluar X100 oil immersion objective NA 1.45. Images were capture with an EMCCD camera (Prior, ProEM 1024×1024).

LAT9991-PAL: cyclic peptide of SEQ ID NO:12 (LAT9991) conjugated to the PAL (Photo-Activated Labelling) grouping (CRSVEGSCG; disulfide 1-8 (inferred); also: PAL group on N-terminal Cys-Arg part)
Cross-linking of PAL probe to tissue homogenates of nerve from neuropathic animals [1]: cross-linked; also recorded: shown to cross-link
Molecular weight ranges of targets stained after gel separation ([1]; FIG. 3 legend, LAT9991-PAL 5 μM): 12-15 kDa, 37 kDa and 40-50 kDa
Molecular weight ranges of targets stained after gel separation ([1]; PAL probe cross-linked to nerve homogenates): ˜12-15 kD, ˜37 kD and ˜50 kD
Activity on the spinal cord slice model [2]: fully active

YLRIVQCRSVEGSCGF [LAT8881, a cyclic peptide fragment of human growth hormone]
Competition of LAT9991F-PAL binding by excess competitor [3]: partially competed off
Competition of LAT9991F-PAL binding by excess competitor [4]: partially competed off
